These results are taken from patent publication US5763249A, “Antibody-mediated reduction of α-ketoamides” (The Regents of the University of California, priority 1991, dated 1998).

For assay [1], the target named is monoclonal antibody A5, specific for (raised against) the phosphonate hapten 3. The assay is described as follows: Fluorescence quenching binding of inhibitor to antibody A5. Conditions: from fluorescence quenching experiments; inhibitor of the antibody-catalyzed reaction. The protocol: (§1) Greater than 25 turnovers were measured with no apparent change in Vmax.
Assay [2] concerns monoclonal antibody A5, specific for (raised against) the phosphonate hapten 3. In words: Antibody A5-catalysed NaBH3CN-dependent reduction of ketoamide 1, steady-state kinetics (HPLC, Lineweaver Burk). To be noted: substrate ketoamide 1; 13μM antibody, 1mM NaBH3CN, 22° C, 50mM NaCl, 50mM MES buffer, 10% methanol. It is filed as biochemical. As for the experimental part:
Monoclonal antibodies specific for the phosphonate 3 were purified to homogeneity by chromatography on protein-A coupled sepharose, as determined by polyacrylamide gel electrophoresis. Eight of these antibodies were assayed for their ability to reduce the ketoamide 1 by high performance liquid chromatography (HPLC). The (S)-(--)-α-methylbenzylamine group was incorporated into the ketoacid substrate to facilitate analysis of reaction specificity, it having previously been shown that antibodies specific for the phosphonate 3 are relatively insensitive to substitutions in the aliphatic linker. The ketoamide 1 was prepared by a modification of the method of Westerberg and coworkers (Westerberg, D.A., et aL, J. Med Chem. 1989, 32, 236) for the preparation of 4-nitrophenylpyruvic acid. […]
Consequently, all kinetic parameters were measured in the presence of 13μM antibody, 1mM NaBH3 CN at 22° C in 50mM NaCl, 50mM MES buffer. […] Initial reaction rates were determined by measuring the amounts of 1 and 2 (both diastereomers) relative to a p-cresol internal standard using analytical reverse-phase HPLC (Rainin CYNAMAX MICROSORB C18, a common silica-C18 HPLC column packing, with a continuous phase consisting of 40-80% of TFA/CH3 CN in 0.1% aqueous TFA).
as §1

Usually Kd stands for a measure of binding affinity in units of concentration. A lower Kd goes with higher affinity. Usually Km stands for the concentration of substrate that gives half-maximal velocity.

As to `COP(=O)(O)Oc1ccc([N+](=O)[O-])cc1` [4-nitrophenyl methylphosphate], the Kd in assay [1] is 610 nM. This lies in the sub-micromolar range.

For the molecule `CC(NC(=O)C(=O)Cc1ccc([N+](=O)[O-])cc1)c1ccccc1` (stereo not drawn) [compound 1, 1-(p-nitrobenzyl)-2-(α-methyl-benzylamino)ethanedione], in assay [2], the Km is 1240 µM and the κcat amounted to 0.104 min⁻¹.
